1 compound from patent US20010025053A1, “Use of nitric oxid synthase inhibitors for the treatment of diabetes” (Smith Kline Beecham p.l.c., priority 1997, published 2001) can be followed below.

In the assay the test system is obese db/db mouse. As to the kind of experiment: obese db/db mouse model of type 2 non-insulin dependent diabetes. In kind it is in vivo. Conditions: obese db/db mice. From the text: The obese db/db mouse is a genetic model of type 2 non-insulin dependent diabetes which is both insulin resistant and hyperglycaemic. Male animals were obtained at 6 weeks of age. Blood samples were taken by tail tip snip for measurement of pre-treatment blood glucose. Animals were allocated into treated and control groups such that the mean and standard deviation of the fasting blood glucose concentrations of each group was similar.
On day 0 of the study a group of obese animals and their lean litter mates were killed for measurement of baseline biochemistry and histology. In addition one group of animals (control; n=14) were fed a standard diet and a further group received aminoguanidine (500 mg/kg; n=14) in the same diet. Animals were allowed free access to food and water and their intake measured daily. At weekly intervals 24 hr urine output was also measured. Mice (n=7) were killed at 30 days and 85 days from commencement of treatment. Blood was taken for measurement of glucose and insulin concentrations and the pancreas removed for histological analysis and for measurement of pancreatic insulin.

Where [1] appears, read: from day 63 compared to day 7, FIG. 1.

In the case of `N=C(N)NN` [Aminoguanidine, Hydrazinecarboximidamide], where the note is “day 30 of treatment, histology”, the islet morphology entry was “normal islet morphology was preserved”. For the same compound, the islet insulin content entry (day 30 of treatment, vs untreated controls) is listed as “greater”. Moreover, the urinary glucose excretion entry (from day 35, vs untreated, FIG. 1) is recorded as “lower”. Further, under setting [1], the “increase in urine output (polyuria)” value is listed as “prevented” and the “increase in water intake (polydipsia)” value was “prevented”. The “pancreatic insulin content relative to untreated animals” value (treated vs untreated) is listed as “twice that of the untreated animals”.
